Data from patent US11033545B2, “Negative allosteric modulators of MGLUR5 for use in the treatment of mature brain damages” (Sinntaxis AB, priority 2016, dated 2021).

Experiments:
[1] = tested on: male C57/BL6 mice; test: Paw placement test after photothrombotic stroke in the mouse; format: in vivo; conditions: for paw function: continued for 5 days, FIG. 3C
Procedure: (§1) Animals. All experiments were carried out with the approval of the Malmo-Lund animal review board and according to the ARRIVE guidelines. The experiments were carried out on male C57/BL6 mice (8 weeks of age, Charles River Scanbur A/S Karlslunde, Denmark). Studies were subjected to randomization and carried out in a blinded fashion to the investigators who performed the surgeries and behavioral assessment.
Materials were as in Example 1 and the administration of the drug was made as in Example 1. Also the positive allosteric modulator (PAM) for the mGlur5 receptor was SIN006 (N-Cyclobutyl-6-[2-(3-fluorophenyl)ethynyl]-3-pyridinecarboxamide hydrochloride; VU0360172).
Induction of stroke in the mouse. Mice were subjected to unilateral photothrombotic (PT) cortical infarct in the left sensori-motor cortex. During surgery, the body temperature of the animals was kept at 37° C. using a self-regulating heating pad. Animals were anesthetized using 1.5-2.5% isoflurane (Sigma) in 100% 02. The skin above the skull was incised; a fiber optic bundle with a 2.5 mm aperture diameter was connected to a cold light source (CL 1500 ECO, Zeiss, Germany) and adjusted to the stereotaxic coordinates of the sensori-motor cortex, 0.5 mm anterior to bregma and 1.5 mm lateral to midline. One intraperitoneal (i.p.) injection of 0.25 ml Rose Bengal (10 mg/ml in 0.9% saline; Sigma-Aldrich, Germany) was given 5 min before the light was turned on for 20 minutes. Care was taken not to exceed 38° C. at the skull surface, underneath the fiber optic bundle. Post surgery, animals were allowed to awake from anesthesia while on a heating pad and returned to the cages with free access to food pellets and water.
Enriched housing. It is well known that housing of rodents in an enriched environment stimulates the various sensori-motor systems of the brain enhancing recovery after experimental stroke. Enriched housing was accomplished by the following procedure. After selective sorting at day 2 after stroke, mice were randomly distributed into standard (STD, 17 cm×16 cm×34.5 cm) or enriched cages (EE, 30 cm×27 cm×43 cm). Multilevel-enriched cages were equipped with various colored objects such as plastic tunnels, small houses, slides and rodent running wheels; the disposition of the objects was changed every second day. Mice were housed in either standard (2 animals/cage) or enriched cages (6-8 animals/cage) for 12 days. Animals in standard cages were handled similarly except for the housing condition.
Paw placement test. The mouse was held along its rostro-caudal extension on the edge of a bench and both the unilateral front and hind paws were gently pushed along it. The placement of each paw was recorded when the mouse was moved towards the edge. Sensori-motor dysfunction was assessed by using a score of 1, 0.5, and 0: (1)—the paw is immediately placed on the table surface; (0.5)—the limb is extended, but with some movements and attempts to place the paw on the surface of the table; (0)—the paw is totally immobilized, hanging down, with no movement. In order to obtain groups with a similar functional deficit prior to treatment of the animals with drugs or vehicle, selective sorting was performed on day 2 after experimental stroke, a time point of recovery when the infarct development had subsided.
(§2) Administration of the compounds. The compounds were administrated orally (p.o.) by catheters placed in the stomach. The amount of solutions were 0.2 ml/rat and 0.1 ml/mice.
(§3) Induction of stroke was as made as in Example 1 for rats and as in Example 2 in mice. Assessment of neurological function was performed as in Example 1 for rats and as in Example 2 for mice. The animals were perfused and immunostained as in Example 1, and the infarct size was assessed as in Example 1.

[2] = tested on: male Sprague Dawley rats; test: Paw placement test after photothrombotic stroke in the rat; format: in vivo
Procedure: as §1, with “Malmö-Lund” for “Malmo-Lund”, “guidelines. Animals were housed under reverse light conditions, with the testing performed during the dark period when the rats are active.” for “guidelines.”, “Sprague Dawley rats (11” for “C57/BL6 mice (8”, “River,” for “River”, “The studies” for “Studies”
Administration of compound. The compound was injected as a bolus dose of 1 ml/kg into the lower quadrant of the abdomen.
(§4) Experimental stroke. The animals were anesthetized by isoflurane (approximately 2% in 02 under spontaneous ventilation) and placed into stereotaxic frame. Temperature was monitored during surgery using a rectal temperature probe and animals were kept at 37.0-37.5±0.2° C. by means of a heating pad with feedback control. A sagittal skin incision was made and subcutaneous connective tissue was removed and the skull was dried. Thereafter, the photosensitizer dye Rose Bengal (0.5 mL at 10 mg/mL) was infused in the tail vein. Two minutes after injection, the skull was illuminated with cold light (Schott, KL 1500 LCD) on an area of 8 to 4.5 mm for 15 min (from +4 to −4 mm antero-posterior and from 0.5 to 5 mm on the left from bregma). Thereafter the tail and the scalp incisions were sutured and the rats transferred to their home cage. The functional deficit was assessed 2 h after the onset of the stroke using the limb placement test and only the animals having a score 0, for both fore- and hindlimb contralateral to the brain damaged hemisphere were used for the study.
Test of neurological function. The paw placement test. The cortical damage inflicted by the phothrombosis, causes a deficit due to neuronal loss in the sensori-motor area and depression of functions in neuronal networks in the vicinity of the lesion. […] This test provides information on the tactile/proprioceptive response to limb stimulation. Animals were placed with all 4 paws on the table top, and the paws to be tested along the edge. The rat was moved over the edge so the paws to be tested loose contact with the table surface. The ability of the animals to place the limb back onto the table surface when the rat was moved towards the edge was evaluated. Importantly, the head was held at 45° angle, so that visual and whisker/snout stimulation was prevented. A prompt placement of the limb onto the table was scored as 1. Incomplete placing of the limb was scored as 0.5, and complete extension of the limb and paw was scored as 0. In order to obtain groups with a similar functional deficit prior to treatment of the animals with drugs or vehicle, selective sorting was performed on day 2 after experimental stroke, a time point of recovery when the infarct development had subsided.
as §2, §3
Induction of stroke, assessment of neurological function, perfusion of animals, immunostaining and assessment of infarct size were made as in Example 1.

[3] = tested on: mGluR5 KO rats; test: Paw placement test after stroke in mGluR5 KO rats; format: in vivo, rat; conditions: SIN013 treatment, FIG. 3D
Procedure: as §4, with “Two minutes after injection, the skull was illuminated with cold light (Schott, KL 1500 LCD) on an area of 8 to 4.5 mm for 15 min (from +4 to −4 mm antero-posterior and from 0.5 to 5 mm on the left from bregma). Thereafter the tail and the scalp incisions were sutured and the rats transferred to their home cage.” left out
Test of neurological function. […] The ability of the animals to place the limb back onto the table surface when the rat was moved towards the edge was evaluated. […] A prompt placement of the limb onto the table was scored as 1. Incomplete placing of the limb was scored as 0.5, and complete extension of the limb and paw was scored as 0. […]
Induction of stroke was as made as in Example 1 for rats and as in Example 2 in mice. […] The animals were perfused and immunostained as in Example 1, and the infarct size was assessed as in Example 1.

[4] = tested on: male C57/BL6 mice; test: Paw placement test after photothrombotic stroke in the mouse; format: in vivo

How did the paw placement function ([1]; mouse, 30 mg/kg p.o. daily for 5 days, started 2 days after stroke, vs vehicle, p<0.01, FIG. 3B) turn out when `COC(=O)N1CC[C@@H]2[C@H]1CCC[C@@]2(O)C#Cc1cccc(C)c1` [SIN 011, (3aR,4S,7aR)-Octahydro-4-hydroxy-4 [2-(3-methylphenyl)ethynyl]-1H-indole-1-carboxylic acid methyl ester] was run?
Its paw placement function is “significant recovery of paw function”.

Which results are given for `Cc1nc(C#Cc2ccnc(Cl)c2)c(C)n1-c1ccc(OC(F)(F)F)cc1` [SIN013, 2-chloro-4-[2-[2,5-dimethyl-1-[4-(trifluoromethoxy)phenyl]imidazol-4-yl]ethynyl]pyridine]?
paw function ([1]; mouse, 2 mg/kg daily, started 2 days after stroke, p<0.05): enhancement of function, which was significant; paw function ([1]; mouse, 2 mg/kg every 48 h, started 2 days after stroke): enhancement of function; paw placement function ([2]; wild type rat, 2 mg/kg/day p.o. for 5 days, initiated 2 days after stroke, vs vehicle, FIG. 3D): significantly improved paw placement function; recovery of paw placement function [3]: recovery stimulated by SIN013 treatment was not seen

Which results are given for `Cl.O=C(NC1CCC1)c1ccc(C#Cc2cccc(F)c2)nc1` [SIN006, N-Cyclobutyl-6-[2-(3-fluorophenyl)ethynyl]-3-pyridinecarboxamide hydrochloride]?
effect on enhanced recovery of function by enriched environment ([4]; SIN006 30 mg/kg p.o. concomitant with 5 days enriched housing after stroke, FIG. 2E): completely blocked; paw placement score after 5 days of treatment ([4]; SIN006 30 mg/kg p.o. daily, 1 hour prior to SIN007 5 mg/kg i.p., starting two days after stroke, FIG. 2D): did not recover function

`N#Cc1cc(F)cc(-c2nc(-c3ccc(F)cn3)no2)c1` [SIN 015, 3-fluoro-5-(3-(5-fluoropyridin-2-yl)-1,2,4-oxadiazol5-yl)benzonitrile] was tested. Which recovery of function ([2]; rat, 3 mg/kg for 5 days starting 2 days after stroke, FIG. 4C) did it give?
Its recovery of function is “improved recovery of function”.

With `Cc1nc(C#Cc2ccnc(Cl)c2)c(C)n1-c1ccc(F)cc1` [SIN014] as the molecule, how does the functional recovery ([1]; mouse, 10 mg/kg p.o. for 5 days (higher dose; lower dose 5 mg/kg p.o.), FIG. 3E) read?
The functional recovery was “improved functional recovery at the higher dose”.

`CN1CC(=O)N=C1NC(=O)Nc1cccc(Cl)c1` [SIN010, 1-(3-chlorophenyl)-3-(3-methyl-5-oxo-4H-imidazol-2-yl)urea] was tested. Which “recovery of function, combined with enriched housing” value ([1]; mice, daily SIN010 plus enriched housing from 2 days after stroke, vs Vh, EE alone or SIN010 alone, FIG. 4B) did it give?
Its value is “further improves recovery”.

And the recovery of function ([2]; rat, 10 mg/kg p.o. daily for 5 days or 12 days, initiated 2 days after stroke, FIG. 4A)?
Its recovery of function is “improves recovery function”.

And the “improvement of function, time dependence” value ([2]; rat, 10 mg/kg p.o. daily for 12 days, initiated 2 days after stroke, vs vehicle, FIG. 4A)?
The value was “significant after 12 days of treatment”.

`Fc1ccc2nc(CCC#Cc3ccccn3)cn2c1` [SIN008, 6-Fluoro-2-[4-(pyridin-2-yl)-3-butynyl]imidazo[1,2-a]pyridine] was tested. Which “neurological function (paw placement)” value ([2]; rat, 30 mg/kg p.o. for 5 days, started 2 days after stroke, vs vehicle, FIG. 3A) did it give?
The value was “significantly improved neurological function”.
